HELM strings list units from the 5' end as sugar, base in round brackets, then linkage (d deoxyribose, r ribose, m 2'-O-methyl, p phosphodiester). Strings are as the collection lists them; they lack the last nucleoside at the 3' end of the tested compound. [moe] = 2'-O-(2-methoxyethyl) (MOE); [sp] = phosphorothioate linkage; [m5C] = 5-methylcytosine

The target of this data set is PRNP. Put plainly: mouse, dose not given. Particulars: ASO.

On to “RNA1{[moe](T)[sp].[moe](G)p.[moe](T)p.[moe]([m5C])p.[moe](A)p.[moe](G)p.d(T)[sp].d(T)[sp].d(T)[sp].d(T)[sp].d(T)[sp].d([m5C])[sp].d([m5C])[sp].d([m5C])[sp].d([m5C])[sp].d(A)[sp].[moe]([m5C])p.[moe](A)[sp].[moe](T)}$$$$ (last 3' nucleoside missing)”, for which the 3 h FOB score was determined as 0.5 score 0-7.

In the case of “RNA1{[moe]([m5C])[sp].[moe](T)p.[moe]([m5C])p.d(T)[sp].d(A)[sp].d(T)[sp].d(G)[sp].d(T)[sp].d(T)[sp].d(T)[sp].d(T)[sp].d([m5C])[sp].d([m5C])[sp].[moe](A)p.[moe](G)p.[moe](T)p.[moe](G)p.[moe]([m5C])[sp].[moe]([m5C])}$$$$ (last 3' nucleoside missing)”, the 3 h FOB score worked out at 3 score 0-7.

“RNA1{[moe](G)[sp].[moe](T)p.[moe](G)p.[moe]([m5C])p.[moe](T)[sp].d(T)[sp].d(A)[sp].d(T)[sp].d(T)[sp].d(A)[sp].d(T)[sp].d(T)[sp].d([m5C])[sp].d(A)[sp].d(T)[sp].[moe](G)p.[moe](T)p.[moe](T)[sp].[moe]([m5C])}$$$$ (last 3' nucleoside missing)” returned a 3 h FOB score of 0.5 score 0-7.

“RNA1{[moe](G)[sp].[moe](T)p.[moe](G)p.[moe](T)p.[moe]([m5C])p.[moe](A)p.d(T)[sp].d(A)[sp].d(A)[sp].d(T)[sp].d(T)[sp].d(T)[sp].d(T)[sp].d([m5C])[sp].d(T)[sp].d(T)[sp].[moe](A)p.[moe](G)[sp].[moe]([m5C])}$$$$ (last 3' nucleoside missing)” yielded a 3 h FOB score of 0 score 0-7.

In turn, “RNA1{[moe](A)[sp].[moe](T)p.[moe](T)p.[moe](T)p.[moe](G)[sp].d(A)[sp].d(T)[sp].d(T)[sp].d(T)[sp].d([m5C])[sp].d(A)[sp].d(A)[sp].d(G)[sp].d(T)[sp].d([m5C])[sp].[moe]([m5C])p.[moe]([m5C])p.[moe](A)[sp].[moe](G)}$$$$ (last 3' nucleoside missing)” registered a 3 h FOB score of 5.75 score 0-7.

For “RNA1{[moe](G)[sp].[moe]([m5C])p.[moe](T)p.[moe]([m5C])p.[moe](T)[sp].d(A)[sp].d(T)[sp].d(T)[sp].d(A)[sp].d(A)[sp].d(T)[sp].d(A)[sp].d(G)[sp].d(G)[sp].d(T)[sp].[moe](T)p.[moe](A)p.[moe](G)[sp].[moe](G)}$$$$ (last 3' nucleoside missing)”, the 3 h FOB score turned out to be 4.25 score 0-7.

With “RNA1{[moe]([m5C])[sp].[moe]([m5C])p.[moe](A)p.[moe]([m5C])p.[moe](A)[sp].d(T)[sp].d(A)[sp].d(T)[sp].d(A)[sp].d(G)[sp].d(G)[sp].d(G)[sp].d(T)[sp].d([m5C])[sp].d([m5C])[sp].[moe](T)p.[moe](T)p.[moe](T)[sp].[moe](A)}$$$$ (last 3' nucleoside missing)”, the 3 h FOB score stood at 1.5 score 0-7.

Substance “RNA1{[moe](G)[sp].[moe](T)p.[moe](T)p.[moe](T)p.[moe]([m5C])[sp].d([m5C])[sp].d([m5C])[sp].d(A)[sp].d([m5C])[sp].d(A)[sp].d(T)[sp].d(A)[sp].d(T)[sp].d(T)[sp].d(A)[sp].[moe](A)p.[moe](G)p.[moe](T)[sp].[moe](A)}$$$$ (last 3' nucleoside missing)” came in with a 3 h FOB score of 1 score 0-7.

“RNA1{[moe](G)[sp].[moe]([m5C])p.[moe](T)p.[moe](T)p.[moe](T)[sp].d(G)[sp].d(G)[sp].d(A)[sp].d(T)[sp].d([m5C])[sp].d(T)[sp].d([m5C])[sp].d(T)[sp].d(T)[sp].d(A)[sp].[moe](G)p.[moe](A)p.[moe](T)[sp].[moe](T)}$$$$ (last 3' nucleoside missing)” yielded a 3 h FOB score of 0 score 0-7.

Turning to “RNA1{[moe](G)[sp].[moe](G)p.[moe](T)p.[moe](T)p.[moe](A)[sp].d([m5C])[sp].d(A)[sp].d(T)[sp].d(A)[sp].d(A)[sp].d(T)[sp].d(G)[sp].d(T)[sp].d(T)[sp].d([m5C])[sp].[moe](A)p.[moe](T)p.[moe](T)[sp].[moe](T)}$$$$ (last 3' nucleoside missing)”, the 3 h FOB score turned out to be 5 score 0-7.

In the case of “RNA1{[moe](T)[sp].[moe](G)p.[moe](G)p.[moe](T)p.[moe](G)[sp].d(A)[sp].d(T)[sp].d(T)[sp].d(T)[sp].d(T)[sp].d(T)[sp].d(T)[sp].d([m5C])[sp].d([m5C])[sp].d(T)[sp].[moe](T)p.[moe](T)p.[moe]([m5C])[sp].[moe](T)}$$$$ (last 3' nucleoside missing)”, the 3 h FOB score is 0 score 0-7.

In turn, “RNA1{[moe](G)[sp].[moe](T)p.[moe](T)p.[moe](G)p.[moe](T)[sp].d(T)[sp].d(G)[sp].d(T)[sp].d(T)[sp].d(T)[sp].d([m5C])[sp].d(T)[sp].d(T)[sp].d(T)[sp].d(T)[sp].[moe]([m5C])p.[moe](T)p.[moe](G)[sp].[moe](G)}$$$$ (last 3' nucleoside missing)” returned a 3 h FOB score of 6 score 0-7.

In the case of “RNA1{[moe](G)[sp].[moe](T)p.[moe]([m5C])p.[moe](A)p.[moe](G)[sp].d(T)[sp].d(T)[sp].d(T)[sp].d(T)[sp].d(T)[sp].d([m5C])[sp].d([m5C])[sp].d([m5C])[sp].[moe]([m5C])p.[moe](A)p.[moe]([m5C])[sp].[moe](A)}$$$$ (last 3' nucleoside missing)”, the 3 h FOB score came out at 0 score 0-7.

In the case of “RNA1{[moe](A)[sp].[moe]([m5C])p.[moe](T)p.[moe](T)p.[moe](G)p.[moe](T)p.d([m5C])[sp].d(A)[sp].d(G)[sp].d(T)[sp].d(T)[sp].d(T)[sp].d(T)[sp].d(T)[sp].d([m5C])[sp].d([m5C])[sp].[moe]([m5C])p.[moe]([m5C])[sp].[moe](A)}$$$$ (last 3' nucleoside missing)”, the 3 h FOB score came out at 0.25 score 0-7.

“RNA1{[moe](G)[sp].[moe](T)p.[moe](G)p.[moe](T)p.[moe]([m5C])p.d(A)[sp].d(T)[sp].d(A)[sp].d(A)[sp].d(T)[sp].d(T)[sp].d(T)[sp].d(T)[sp].d([m5C])[sp].[moe](T)[sp].[moe](T)p.[moe](A)p.[moe](G)}$$$$ (last 3' nucleoside missing)” yielded a 3 h FOB score of 0 score 0-7.

“RNA1{[moe](T)[sp].[moe]([m5C])p.[moe]([m5C])p.[moe](A)p.[moe](T)[sp].d(T)[sp].d(T)[sp].d(T)[sp].d([m5C])[sp].d(T)[sp].d(G)[sp].d(T)[sp].d(G)[sp].d([m5C])[sp].d(T)[sp].[moe](T)p.[moe](T)p.[moe](T)[sp].[moe]([m5C])}$$$$ (last 3' nucleoside missing)”: the 3 h FOB score came to 3.75 score 0-7.

Regarding “RNA1{[moe](A)[sp].[moe]([m5C])p.[moe](T)p.[moe]([m5C])p.[moe](T)[sp].d(A)[sp].d(T)[sp].d(G)[sp].d(T)[sp].d(T)[sp].d(T)[sp].d(T)[sp].d([m5C])[sp].d([m5C])[sp].d(A)[sp].[moe](G)p.[moe](T)p.[moe](G)[sp].[moe]([m5C])}$$$$ (last 3' nucleoside missing)”, the 3 h FOB score amounted to 2 score 0-7.

The substance “RNA1{[moe](G)[sp].[moe](T)p.[moe](G)p.[moe](T)p.[moe]([m5C])[sp].d(A)[sp].d(T)[sp].d(A)[sp].d(A)[sp].d(T)[sp].d(T)[sp].d(T)[sp].d(T)[sp].d([m5C])[sp].d(T)[sp].[moe](T)p.[moe](A)p.[moe](G)[sp].[moe]([m5C])}$$$$ (last 3' nucleoside missing)” gave a 3 h FOB score of 0.5 score 0-7.

Substance “RNA1{[moe](G)[sp].[moe](T)p.[moe]([m5C])p.[moe](A)p.[moe](G)p.d(T)[sp].d(T)[sp].d(T)[sp].d(T)[sp].d(T)[sp].d([m5C])[sp].d([m5C])[sp].d([m5C])[sp].d([m5C])[sp].[moe](A)p.[moe]([m5C])p.[moe](A)[sp].[moe](T)}$$$$ (last 3' nucleoside missing)” displayed a 3 h FOB score of 0 score 0-7.

“RNA1{[moe]([m5C])[sp].[moe](T)p.[moe](T)p.[moe](A)p.[moe](T)p.d(T)[sp].d(A)[sp].d(T)[sp].d(T)[sp].d([m5C])[sp].d(A)[sp].d(T)[sp].d(G)[sp].d(T)[sp].[moe](T)p.[moe]([m5C])p.[moe](T)[sp].[moe]([m5C])}$$$$ (last 3' nucleoside missing)” registered a 3 h FOB score of 0 score 0-7.

The substance “RNA1{[moe](T)[sp].[moe](G)p.[moe](G)p.[moe]([m5C])p.[moe](T)[sp].d(T)[sp].d(A)[sp].d([m5C])[sp].d(T)[sp].d([m5C])[sp].d(G)[sp].d(G)[sp].d([m5C])[sp].d(T)[sp].d(T)[sp].[moe](G)p.[moe](T)p.[moe](T)[sp].[moe]([m5C])}$$$$ (last 3' nucleoside missing)” came in with a 3 h FOB score of 3.75 score 0-7.

As for “RNA1{[moe](G)[sp].[moe](A)p.[moe](T)p.[moe](T)p.[moe](G)[sp].d(T)[sp].d([m5C])[sp].d(T)[sp].d([m5C])[sp].d([m5C])[sp].d([m5C])[sp].d(T)[sp].d(A)[sp].d(T)[sp].d(T)[sp].[moe]([m5C])p.[moe](T)p.[moe](T)[sp].[moe](T)}$$$$ (last 3' nucleoside missing)”, the 3 h FOB score was found to be 5.5 score 0-7.

The values above are taken from the OligoGym collection.
